{
  "source": "paper PMC10891214",
  "about": "“Effects of food and ethnicity on the pharmacokinetics of venadaparib, a next-generation PARP inhibitor, in healthy Korean, Caucasian, and Chinese male subjects” (Investigational New Drugs, 2023)",
  "assay": "Safety assessment (adverse events, vital signs, 12-lead ECGs) after a single administration of venadaparib 80 mg",
  "settings": "for TEAEs: number of events / TEAEs: number of subjects: Koreans and Caucasians, 80 mg",
  "protocol": "Safety was assessed in all subjects who received the study drug at least once throughout the study based on adverse event (AE) monitoring, physical examinations, vital signs, 12-lead electrocardiograms (ECGs), and clinical laboratory tests.\nTo support the evaluation of the relationship between concentration and QT/corrected QT (QTc) interval effects in the early stage of the clinical development of venadaparib, triplicate ECG tests were conducted in the middle of the study [22]. A triplicate ECG test was conducted in three Caucasian and five Chinese subjects after the protocol amendment. […] Fridericia’s corrected QT interval (QTcF) was collected, along with the existing ventricular rate, PR interval, QRS duration, QT interval, and QTcB. Triplicate ECGs were measured three times at intervals of 30 s to 2 min at each time point after at least 5 min of resting, and the median value of the three measurements was considered a representative value. QTcF and QTcB were calculated using the following population-derived correction equations: QTcF = QT/RR^0.33 and QTcB = QT/RR^0.5 [22].",
  "data": [
    {"compound": "O=C(c1cc(Cc2n[nH]c(=O)c3ccccc23)ccc1F)N1CC(CNC2CC2)C1", "note": "[venadaparib]", "values": [
      {"measurement": "Thirst: number of events", "setting": "Caucasian, fed state (N = 12)", "result": 1},
      {"measurement": "Thirst: number of subjects (percentage of subjects)", "setting": "Caucasian, fed state (N = 12)", "result": "1 (8.3)"},
      {"measurement": "Total TEAEs: number of events", "setting": "Caucasian, fed state (N = 12)", "result": 9},
      {"measurement": "Total TEAEs: number of subjects (percentage of subjects)", "setting": "Caucasian, fed state (N = 12)", "result": "7 (58.3)"},
      {"measurement": "Decreased appetite: number of events", "setting": "Chinese, fasted state (N = 12)", "result": 1},
      {"measurement": "Decreased appetite: number of subjects (percentage of subjects)", "setting": "Chinese, fasted state (N = 12)", "result": "1 (8.3)"},
      {"measurement": "Dyspepsia: number of events", "setting": "Chinese, fasted state (N = 12)", "result": 1},
      {"measurement": "Dyspepsia: number of subjects (percentage of subjects)", "setting": "Chinese, fasted state (N = 12)", "result": "1 (8.3)"},
      {"measurement": "Gastrointestinal disorders: number of events", "setting": "Chinese, fasted state (N = 12)", "result": 1},
      {"measurement": "Gastrointestinal disorders: number of subjects (percentage of subjects)", "setting": "Chinese, fasted state (N = 12)", "result": "1 (8.3)"},
      {"measurement": "Hypertriglyceridaemia: number of events", "setting": "Chinese, fasted state (N = 12)", "result": 1},
      {"measurement": "Hypertriglyceridaemia: number of subjects (percentage of subjects)", "setting": "Chinese, fasted state (N = 12)", "result": "1 (8.3)"},
      {"measurement": "Metabolism and nutrition disorders: number of events", "setting": "Chinese, fasted state (N = 12)", "result": 2},
      {"measurement": "Metabolism and nutrition disorders: number of subjects (percentage of subjects)", "setting": "Chinese, fasted state (N = 12)", "result": "2 (16.7)"},
      {"measurement": "Abdominal pain: number of events", "setting": "Korean, fasted state (N = 12)", "result": 1},
      {"measurement": "Abdominal pain: number of subjects (percentage of subjects)", "setting": "Korean, fasted state (N = 12)", "result": "1 (8.3)"},
      {"measurement": "Dyspepsia: number of events", "setting": "Korean, fasted state (N = 12)", "result": 1},
      {"measurement": "Dyspepsia: number of subjects (percentage of subjects)", "setting": "Korean, fasted state (N = 12)", "result": "1 (8.3)"},
      {"measurement": "Gastrointestinal disorders: number of events", "setting": "Korean, fasted state (N = 12)", "result": 4},
      {"measurement": "Gastrointestinal disorders: number of subjects (percentage of subjects)", "setting": "Korean, fasted state (N = 12)", "result": "3 (25.0)"},
      {"measurement": "Gingival pain: number of events", "setting": "Korean, fasted state (N = 12)", "result": 1},
      {"measurement": "Gingival pain: number of subjects (percentage of subjects)", "setting": "Korean, fasted state (N = 12)", "result": "1 (8.3)"},
      {"measurement": "Nausea: number of events", "setting": "Korean, fasted state (N = 12)", "result": 1},
      {"measurement": "Nausea: number of subjects (percentage of subjects)", "setting": "Korean, fasted state (N = 12)", "result": "1 (8.3)"},
      {"measurement": "Decreased appetite: number of events", "setting": "Korean, fed state (N = 13)", "result": 3},
      {"measurement": "Decreased appetite: number of subjects (percentage of subjects)", "setting": "Korean, fed state (N = 13)", "result": "3 (23.1)"},
      {"measurement": "Dyspepsia: number of events", "setting": "Korean, fed state (N = 13)", "result": 2},
      {"measurement": "Dyspepsia: number of subjects (percentage of subjects)", "setting": "Korean, fed state (N = 13)", "result": "1 (7.7)"},
      {"measurement": "Eye disorders: number of events", "setting": "Korean, fed state (N = 13)", "result": 3},
      {"measurement": "Eye disorders: number of subjects (percentage of subjects)", "setting": "Korean, fed state (N = 13)", "result": "1 (7.7)"},
      {"measurement": "Eye pain: number of events", "setting": "Korean, fed state (N = 13)", "result": 1},
      {"measurement": "Eye pain: number of subjects (percentage of subjects)", "setting": "Korean, fed state (N = 13)", "result": "1 (7.7)"},
      {"measurement": "Gastrointestinal disorders: number of events", "setting": "Korean, fed state (N = 13)", "result": 7},
      {"measurement": "Gastrointestinal disorders: number of subjects (percentage of subjects)", "setting": "Korean, fed state (N = 13)", "result": "5 (38.5)"},
      {"measurement": "Hyperaemia: number of events", "setting": "Korean, fed state (N = 13)", "result": 1},
      {"measurement": "Hyperaemia: number of subjects (percentage of subjects)", "setting": "Korean, fed state (N = 13)", "result": "1 (7.7)"},
      {"measurement": "Lacrimation increased: number of events", "setting": "Korean, fed state (N = 13)", "result": 1},
      {"measurement": "Lacrimation increased: number of subjects (percentage of subjects)", "setting": "Korean, fed state (N = 13)", "result": "1 (7.7)"},
      {"measurement": "Metabolism and nutrition disorders: number of events", "setting": "Korean, fed state (N = 13)", "result": 3},
      {"measurement": "Metabolism and nutrition disorders: number of subjects (percentage of subjects)", "setting": "Korean, fed state (N = 13)", "result": "3 (23.1)"},
      {"measurement": "Musculoskeletal and connective tissue disorders: number of events", "setting": "Korean, fed state (N = 13)", "result": 1},
      {"measurement": "Musculoskeletal and connective tissue disorders: number of subjects (percentage of subjects)", "setting": "Korean, fed state (N = 13)", "result": "1 (7.7)"},
      {"measurement": "Nausea: number of events", "setting": "Korean, fed state (N = 13)", "result": 5},
      {"measurement": "Nausea: number of subjects (percentage of subjects)", "setting": "Korean, fed state (N = 13)", "result": "5 (38.5)"},
      {"measurement": "Respiratory, thoracic, and mediastinal disorders: number of events", "setting": "Korean, fed state (N = 13)", "result": 1},
      {"measurement": "Respiratory, thoracic, and mediastinal disorders: number of subjects (percentage of subjects)", "setting": "Korean, fed state (N = 13)", "result": "1 (7.7)"},
      {"measurement": "Rhabdomyolysis: number of events", "setting": "Korean, fed state (N = 13)", "result": 1},
      {"measurement": "Rhabdomyolysis: number of subjects (percentage of subjects)", "setting": "Korean, fed state (N = 13)", "result": "1 (7.7)"},
      {"measurement": "Rhinorrhoea: number of events", "setting": "Korean, fed state (N = 13)", "result": 1},
      {"measurement": "Rhinorrhoea: number of subjects (percentage of subjects)", "setting": "Korean, fed state (N = 13)", "result": "1 (7.7)"},
      {"measurement": "Total TEAEs: number of events", "setting": "Korean, fed state (N = 13)", "result": 16},
      {"measurement": "Total TEAEs: number of subjects (percentage of subjects)", "setting": "Korean, fed state (N = 13)", "result": "6 (46.2)"},
      {"measurement": "Vascular disorders: number of events", "setting": "Korean, fed state (N = 13)", "result": 1},
      {"measurement": "Vascular disorders: number of subjects (percentage of subjects)", "setting": "Korean, fed state (N = 13)", "result": "1 (7.7)"},
      {"measurement": "Vision blurred: number of events", "setting": "Korean, fed state (N = 13)", "result": 1},
      {"measurement": "Vision blurred: number of subjects (percentage of subjects)", "setting": "Korean, fed state (N = 13)", "result": "1 (7.7)"},
      {"measurement": "TEAEs: number of events", "setting": "fasted state", "result": "nine"},
      {"measurement": "TEAEs: number of subjects", "setting": "fasted state", "result": "seven"},
      {"measurement": "TEAEs: number of events", "setting": "fed state", "result": 25},
      {"measurement": "TEAEs: number of subjects", "setting": "fed state", "result": 13}
    ]}
  ]
}
